Measured values published in patent US6596713B1, “Steroid esters and amides, process for their production and their pharmaceutical use” (priority 1994, dated 2003).

format: physicochemical; details: temperature in which 50 mg of substance is dissolved in 1 ml of a 1:4 benzyl benzoate/castor oil mixture; lower temperature = better solubility

| Compound | Solubility [°C] |
| --- | --- |
| CC(C)[C@H](NC(=O)OC(C)(C)C)C(=O)OCCC[C@@]1(O)CC[C@H]2[C@@H]3CCC4=CC(=O)CCC4=C3[C@@H](c3ccc(N(C)C)cc3)C[C@]21C [Example 29, (S)-11β-[4-(Dimethylamino)phenyl]-17α-[3-[2-[[(1,1-dimethylethoxy)-carbonyl]amino]-3-methyl-1-oxobutoxy]-1-propyl]-17α-hydroxy-13α-estra-4,9-dien-3-one] | 23 |
| CC(NC(=O)OC(C)(C)C)C(=O)OCC=CC1(O)CCC2C3CCC4=CC(=O)CCC4C3C(c3ccc(N(C)C)cc3)CC21C (stereo not drawn) [Example 31, [S-(Z)]-11β-[4-(Dimethylamino)phenyl]-17α-[3-[2-[[(1,1-dimethylethoxy)carbonyl]amino]-1-oxopropoxy]-1-propenyl]-17β-hydroxyestr-4-en-3-one] | 23 |
| CC(C)(C)CC(=O)OC/C=C\[C@]1(O)CC[C@H]2[C@@H]3CCC4=CC(=O)CC[C@@]45Cc4cc(-c6ccc(C#N)cc6)ccc4[C@@H](C[C@@]21C)[C@@H]35 [Example 7, (Z)-6′-(4-Cyanophenyl)-9,11α-dihydro-17α-[3-(3,3-dimethyl-1-oxobutoxy)-1-propenyl]-17β-hydroxy-4′H-naphtho[3′,2′,1′:10,9,11]estr-4-en-3-one] | 23 |
| (S-(Z)]-6′-(4-Cyanophenyl)-9,11α-dihydro-17α-[3-[2-[[(1,1-dimethylethoxy)carbonyl]amino]-1-oxopropoxy]-1-propenyl]-17β-hydroxy-4′H-naphtho[3′,2′,1′:10,9,11]estr-4-en-3-one [Example 15] | 23 |
| (Z)-9,11α-Dihydro-17α-[3-(3,3-dimethyl-1-oxobutoxy)-1-propenyl]-6′-(3-pyridinyl)-17βhydroxy-4′H-naphtho[3′,2′,1′:10,9,11]estr-4-en-3-one [Example 21] | 50 |
| (Z)-6′-(4-Cyanophenyl)-9,11α-dihydro-17α-hydroxy-17α-[3-[(1-oxododecyl)oxy]-1-propenyl]-4′H-naphtho[3′,2′,1′:10,9,11]estr-4-en-3-one [Example 5] | 23 |
| (Z)-9,11α-Dihydro-17β-hydroxy-17α-[3-(1-oxopropoxy)-1-propenyl]-6′-(3-pyridinyl)-4′H-naphtho[3′,2′,1′:10,9,11]estr-4-en-3-one [Example 18] | 50 |
| (Z)-6′-(4-Cyanophenyl)-9,11α-dihydro-17β-hydroxy-17α-[3-[(1-oxoheptyl)oxy]-1-propenyl]-4′H-naphtho[3′,2′,1′:10,9,11]estr-4-en-3-one [Example 3] | 23 |
| C[C@H](N)C(=O)OC/C=C\[C@]1(O)CC[C@H]2[C@@H]3CCC4=CC(=O)CC[C@@H]4[C@H]3[C@@H](c3ccc(N(C)C)cc3)C[C@@]21C [Example 30, [S-(Z)]-17α-[3-(2-Amino-1-oxopropoxy)-1-propenyl]-11β-[4-(dimethylamino)phenyl]-17βhydroxyestr-4-en-3-one] | 50 |

Other lines, results leading:

| Solubility [°C] | Compound |
| --- | --- |
| 50 | [S-(Z)]-9,11α-Dihydro-17α-[3-[2-[[(1,1-dimethylethoxy)carbonyl]amino]-1-oxopropoxy]-1-propenyl]-17β-hydroxy-6′-(3-pyridinyl)-4′H-naphtho[3′,2′,1′:10,9,11]estr-4-en-3-one [Example 24] |
| 23 | CC(N)C(=O)OCC=CC1(O)CCC2C3CCC4=CC(=O)CCC45Cc4cc(-c6ccc(C#N)cc6)ccc4C(CC21C)C35 (stereo not drawn) [Example 14, [S-(Z)]-17α-[3-(2-Amino-1-oxopropoxy)-1-propenyl]-6′-(4-cyanophenyl)-9,11α-dihydro-17β-hydroxy-4′H-naphtho [3′,2′,1′:10,9,11]estr-4-en-3-one] |
| 100 | CC12CC3c4ccc(-c5ccc(C#N)cc5)cc4CC45CCC(=O)C=C4CCC(C35)C1CCC2(O)C=CCOC(=O)CN (stereo not drawn) [Example 12, (Z)-17α-[3-[(Aminoacetyl)oxy]-1-propenyl]-6′-(4-cyanophenyl)-9,11α-dihydro-17β-hydroxy-4′H-naphtho[3′,2′,1′:10,9,11]estr-4-en-3-one] |
| 23 | (Z)-6′-(4-Cyanophenyl)-9,11α-dihydro-17β-hydroxy-17α-[3-[(1-oxononyl)oxy]-1-propenyl]-4′H-naphtho[3′,2′,1′:10,9,11]estr-4-en-3-one [Example 4] |
| 50 | (Z)-9,11α-Dihydro-17β-hydroxy-17α-[3-[(1-oxopentyl)oxy]-1-propenyl]-6′-(3-pyridinyl)-4′H-naphtho[3′,2′,1′:10,9,11]estr-4-en-3-one [Example 19] |
